Test results: ChEMBL document CHEMBL1201862, “PubChem BioAssay data set” (2004)
One block for each compound: values may come before it. Calls of active or inactive are those of the source.

Tests used:
[1] = molecular target: Metabotropic glutamate receptor 3 (Rattus norvegicus, UniProt P31422); test: inhibition of rat mGlu3 glutamate signaling – HEK/GIRK cells, thallium flux, dose response (AID 651839); format: functional
[2] = molecular target: Potassium channel subfamily K member 9 (Homo sapiens, UniProt Q9NPC2); test: KCNK9 flux blockade, concentration-response – cell-based, FluxOR thallium flux, selectivity assay for TASK1 inhibitor project, SAR follow-up (AID 652211); format: functional;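 also: potency is for inhibitors of the channel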
[3] = molecular target: Potassium channel subfamily K member 3 (Homo sapiens, UniProt O14649); test: inhibition of human KCNK3 channel flux – CHO cells, FluxOR thallium flux, SAR follow-up (AID 652212); format: functional
[4] = molecular target: Metabotropic glutamate receptor 5 (Rattus norvegicus, UniProt P31424); test: Identification of a glycine sulfonamide based non-MPEP site positive allosteric potentiator (PAM) of mGlu5 (calcium_assay).; format: functional
[5] = molecular target: T1, Oxysterols receptor LXR-beta (Homo sapiens, UniProt P55055); format: functional, cell-based;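 also: agonist activity at LXR measured by a cell-based luminescence readout across a dose range, run as a counterscreen for daf-12 agonists; HEK293 cells with Gal4-LXR fusion and GAL4-driven luciferase reporter; potency for activation of Gal4-LXR reporter so compounds are agonists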
T1 sequence (P55055 whole entry): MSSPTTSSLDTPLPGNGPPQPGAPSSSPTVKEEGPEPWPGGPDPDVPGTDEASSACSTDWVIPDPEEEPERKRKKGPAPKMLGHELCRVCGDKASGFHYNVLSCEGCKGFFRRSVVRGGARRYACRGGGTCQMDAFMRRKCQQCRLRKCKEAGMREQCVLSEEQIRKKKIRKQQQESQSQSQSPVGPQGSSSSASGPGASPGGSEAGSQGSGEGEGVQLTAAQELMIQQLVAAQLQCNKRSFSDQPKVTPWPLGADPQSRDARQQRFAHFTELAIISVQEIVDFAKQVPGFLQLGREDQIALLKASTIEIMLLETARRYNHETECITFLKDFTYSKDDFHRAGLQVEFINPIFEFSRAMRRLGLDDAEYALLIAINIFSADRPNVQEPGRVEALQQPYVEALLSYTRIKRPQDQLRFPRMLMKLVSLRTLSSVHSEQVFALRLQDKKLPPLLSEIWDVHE

Cytochrome P450 2C19 = Cytochrome P450 2C19 (Homo sapiens, UniProt P33261); test: qHTS Assay for Inhibitors and Substrates of Cytochrome P450 2C19. [Related pubchem assays: 410 ]; format: ADME; conditions: read-out: Potency
[6] = viability loss in CEM21 cells – cell-based, plate reader, dry powder, cytotoxicity control, dose response (AID 687026); format: functional
Cytochrome P450 3A4 = Cytochrome P450 3A4 (Homo sapiens, UniProt P08684); conditions: Potency;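 also: confirmatory qHTS run detecting inhibitors and substrates of CYP3A4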
Sequence of Cytochrome P450 3A4 (P08684 whole entry): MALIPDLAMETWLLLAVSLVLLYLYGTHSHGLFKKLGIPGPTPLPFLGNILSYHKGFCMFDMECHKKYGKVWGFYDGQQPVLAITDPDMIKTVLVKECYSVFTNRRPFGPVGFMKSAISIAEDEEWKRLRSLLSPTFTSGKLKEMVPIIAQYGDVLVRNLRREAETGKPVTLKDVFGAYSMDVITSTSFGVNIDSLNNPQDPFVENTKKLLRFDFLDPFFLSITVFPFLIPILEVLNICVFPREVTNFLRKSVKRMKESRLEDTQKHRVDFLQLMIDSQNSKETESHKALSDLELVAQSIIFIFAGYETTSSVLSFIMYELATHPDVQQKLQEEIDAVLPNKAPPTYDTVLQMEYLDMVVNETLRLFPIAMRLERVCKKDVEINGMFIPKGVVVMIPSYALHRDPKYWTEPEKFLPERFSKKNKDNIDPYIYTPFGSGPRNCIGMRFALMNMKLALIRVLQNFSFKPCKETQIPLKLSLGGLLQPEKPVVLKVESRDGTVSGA

Sequence of Potassium channel subfamily K member 3 (O14649 whole entry): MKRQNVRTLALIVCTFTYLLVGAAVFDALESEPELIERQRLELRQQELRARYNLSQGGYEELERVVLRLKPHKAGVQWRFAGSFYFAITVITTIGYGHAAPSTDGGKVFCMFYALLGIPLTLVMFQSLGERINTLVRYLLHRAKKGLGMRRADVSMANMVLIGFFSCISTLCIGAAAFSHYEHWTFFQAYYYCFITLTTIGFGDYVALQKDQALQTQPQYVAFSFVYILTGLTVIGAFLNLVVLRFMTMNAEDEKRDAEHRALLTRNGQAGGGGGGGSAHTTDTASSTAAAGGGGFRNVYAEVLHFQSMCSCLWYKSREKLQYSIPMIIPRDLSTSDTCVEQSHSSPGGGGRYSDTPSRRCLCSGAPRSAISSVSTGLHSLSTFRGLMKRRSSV
Sequence of Metabotropic glutamate receptor 3 (P31422 whole entry): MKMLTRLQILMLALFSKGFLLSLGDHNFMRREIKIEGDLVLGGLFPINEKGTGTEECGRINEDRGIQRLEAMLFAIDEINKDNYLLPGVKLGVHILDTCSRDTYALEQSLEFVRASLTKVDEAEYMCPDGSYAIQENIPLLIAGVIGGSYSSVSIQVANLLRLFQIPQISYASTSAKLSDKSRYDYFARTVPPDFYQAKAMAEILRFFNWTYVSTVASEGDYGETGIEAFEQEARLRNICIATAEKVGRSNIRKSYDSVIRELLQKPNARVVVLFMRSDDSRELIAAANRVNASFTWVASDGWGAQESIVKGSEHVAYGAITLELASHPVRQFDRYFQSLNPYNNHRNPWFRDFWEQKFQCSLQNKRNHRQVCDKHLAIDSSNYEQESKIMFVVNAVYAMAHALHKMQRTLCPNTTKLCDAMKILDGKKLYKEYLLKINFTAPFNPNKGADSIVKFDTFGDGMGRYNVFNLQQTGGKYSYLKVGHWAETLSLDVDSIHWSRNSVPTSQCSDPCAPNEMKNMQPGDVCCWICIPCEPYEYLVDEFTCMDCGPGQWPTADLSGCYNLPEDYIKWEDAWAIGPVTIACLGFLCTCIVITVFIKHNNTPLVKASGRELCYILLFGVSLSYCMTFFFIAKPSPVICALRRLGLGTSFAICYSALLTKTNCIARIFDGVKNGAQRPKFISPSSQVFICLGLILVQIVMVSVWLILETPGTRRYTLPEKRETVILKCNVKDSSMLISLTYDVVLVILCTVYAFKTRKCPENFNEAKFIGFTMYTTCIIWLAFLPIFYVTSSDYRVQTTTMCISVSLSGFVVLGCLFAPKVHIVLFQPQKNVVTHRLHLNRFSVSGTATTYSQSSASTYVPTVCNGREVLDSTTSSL
Sequence of Metabotropic glutamate receptor 5 (P31424 whole entry, the tested form may be a part): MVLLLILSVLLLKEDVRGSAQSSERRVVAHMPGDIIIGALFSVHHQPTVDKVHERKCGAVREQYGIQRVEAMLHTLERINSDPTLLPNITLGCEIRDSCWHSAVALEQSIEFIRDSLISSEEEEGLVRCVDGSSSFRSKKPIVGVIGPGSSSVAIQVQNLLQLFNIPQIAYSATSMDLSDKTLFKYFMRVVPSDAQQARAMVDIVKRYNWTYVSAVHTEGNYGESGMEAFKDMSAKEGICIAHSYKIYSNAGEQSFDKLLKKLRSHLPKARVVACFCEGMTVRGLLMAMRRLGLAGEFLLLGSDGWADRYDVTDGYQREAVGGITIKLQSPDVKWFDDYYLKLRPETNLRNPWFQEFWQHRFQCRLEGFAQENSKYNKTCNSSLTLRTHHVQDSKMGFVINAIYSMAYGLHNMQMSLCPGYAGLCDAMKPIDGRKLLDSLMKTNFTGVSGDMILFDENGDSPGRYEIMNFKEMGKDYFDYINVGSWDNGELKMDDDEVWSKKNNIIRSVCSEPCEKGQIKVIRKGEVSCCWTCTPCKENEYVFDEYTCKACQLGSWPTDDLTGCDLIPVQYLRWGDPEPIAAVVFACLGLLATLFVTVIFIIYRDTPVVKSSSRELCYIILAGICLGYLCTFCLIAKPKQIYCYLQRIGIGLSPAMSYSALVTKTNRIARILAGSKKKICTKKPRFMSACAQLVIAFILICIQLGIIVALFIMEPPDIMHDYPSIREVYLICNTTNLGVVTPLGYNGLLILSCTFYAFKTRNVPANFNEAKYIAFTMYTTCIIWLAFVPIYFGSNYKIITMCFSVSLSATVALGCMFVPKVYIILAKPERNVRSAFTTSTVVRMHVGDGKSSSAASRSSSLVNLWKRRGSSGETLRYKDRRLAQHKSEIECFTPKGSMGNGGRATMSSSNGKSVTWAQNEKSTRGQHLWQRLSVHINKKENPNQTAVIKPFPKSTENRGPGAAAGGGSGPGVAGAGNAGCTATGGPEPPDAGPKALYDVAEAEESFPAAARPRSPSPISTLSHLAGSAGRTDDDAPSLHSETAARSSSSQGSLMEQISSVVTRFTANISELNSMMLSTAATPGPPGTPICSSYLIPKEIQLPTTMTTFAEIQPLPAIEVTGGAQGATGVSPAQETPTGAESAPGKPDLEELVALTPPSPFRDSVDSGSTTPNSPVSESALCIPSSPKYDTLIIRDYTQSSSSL
Sequence of Potassium channel subfamily K member 9 (Q9NPC2 whole entry): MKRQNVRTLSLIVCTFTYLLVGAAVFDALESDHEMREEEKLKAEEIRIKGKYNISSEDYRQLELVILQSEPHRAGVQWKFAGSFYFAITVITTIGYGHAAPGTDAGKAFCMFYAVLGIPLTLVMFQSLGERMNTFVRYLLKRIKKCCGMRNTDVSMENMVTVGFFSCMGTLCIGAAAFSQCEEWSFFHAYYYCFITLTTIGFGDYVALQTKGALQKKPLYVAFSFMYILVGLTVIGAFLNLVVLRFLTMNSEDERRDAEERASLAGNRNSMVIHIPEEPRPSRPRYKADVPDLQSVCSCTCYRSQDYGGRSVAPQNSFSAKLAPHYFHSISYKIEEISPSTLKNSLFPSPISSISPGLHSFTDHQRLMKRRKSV
Sequence of Cytochrome P450 2C19 (P33261 whole entry): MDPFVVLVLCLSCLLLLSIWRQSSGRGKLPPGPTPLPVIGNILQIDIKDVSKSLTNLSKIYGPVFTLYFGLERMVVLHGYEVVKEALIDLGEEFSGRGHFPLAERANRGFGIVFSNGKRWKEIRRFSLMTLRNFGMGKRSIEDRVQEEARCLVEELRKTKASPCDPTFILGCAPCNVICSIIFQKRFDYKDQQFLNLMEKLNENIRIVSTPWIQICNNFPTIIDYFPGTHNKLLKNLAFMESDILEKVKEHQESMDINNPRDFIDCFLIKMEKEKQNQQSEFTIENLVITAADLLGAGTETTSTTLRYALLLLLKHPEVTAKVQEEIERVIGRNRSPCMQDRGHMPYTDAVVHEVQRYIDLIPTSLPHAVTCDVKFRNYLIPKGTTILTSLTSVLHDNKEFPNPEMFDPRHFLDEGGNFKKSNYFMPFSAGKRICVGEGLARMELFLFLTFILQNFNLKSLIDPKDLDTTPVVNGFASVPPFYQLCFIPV

IC50 [1]: 9.87 µM (active)
SMILES: COc1ccc(-c2ccc3cc(C(=O)N4CCCC(CO)C4)ccc3c2)c(OC)c1 (stereo not drawn)

IC50 [2]: 0.24 µM (active) | IC50 [3]: 0.003 µM (active)
SMILES: COc1ccccc1C(=O)Nc1cccc(NC(=O)c2cccc3ccccc23)c1

EC50 [4]: 10 µM (inconclusive)
SMILES: CC(C(=O)Nc1ccc(F)nc1)N(c1ccccc1Cl)S(C)(=O)=O (stereo not drawn)

EC50 [5]: > 67.6 µM (inactive)
SMILES: Cc1scc(C(=O)N/N=C/c2ccsc2)c1C

SMILES: N=C1Sc2ccccc2C2=NCCCN12
AC50 (Cytochrome P450 2C19): 6.31 µM (inconclusive) | AC50 [6]: > 70 µM (inactive) | AC50 (Cytochrome P450 3A4): 25.1 µM (inconclusive)
